Assay results taken from publication PMC12186263, “Molecular Basis for Peptide Nitration by a Novel Cytochrome P450 Enzyme in RiPP Biosynthesis” (ACS Catalysis, 2025).
Square brackets hold non-standard residues; d marks the D form. Ends that are not written are not given here. Peptide text beside a SMILES is read from it. Nle = CCCC[C@H](N)C(=O)O

Key:
[1] = test system: ferrous RufO; assay: Stopped-flow transient kinetics of O2 and •NO binding to ferrous RufO; details: 4 °C; for association rate constant k1: 3.3 μM ferrous RufO, pH 8.0, linear fit
Procedure: 5 Transient kinetics of ferrous RufO binding to O2 and ^•NO. Spectral changes following the rapid mixing of 3.3 μM ferrous RufO bound to MRYLH with (A) 18 μM O2 and (C) 70 μM ^•NO over 0.2 s. The black-to-red spectral transitions represent the formation of (A) a ferric-superoxo intermediate and (C) a ferrous-nitrosyl complex. Insets show the time-dependent absorbance changes at 438 nm (the most pronounced shift), fitted using single exponential equations to determine rate constants (red trace). Dependence of rate constant as a function of gas concentration on (B) O2 and (D) ^•NO binding to ferrous RufO alone (blue) and peptide-bound RufO (red). Second-order rate constants were determined through linear fitting. TEXT PRINTED IN THE PICTURE: (A) + O2: kobs = 74.3 s^-1 | (B) RufO alone: k1 = 3.55 μM^-1 s^-1 | (B) peptide-bound: k1 = 3.83 μM^-1 s^-1 | (C) + •NO: kobs = 107.4 s^-1 | (D) RufO alone: k1 = 4.12 μM^-1 s^-1 | (D) peptide-bound: k1 = 2.35 μM^-1 s^-1
Stopped-flow spectroscopic data were collected using an Applied Photophysics SX20 stopped-flow system equipped with a photodiode array detector. The system was maintained in an anaerobic chamber (O2 < 1 ppm) and all sample preparation was done anaerobically. Measurements were performed at 4 °C. All samples were prepared in a buffer containing 50 mM Tris-HCl and 100 mM NaCl, pH 8.0. RufO was prereduced with a minimal amount of sodium dithionite. The final mixed concentrations of RufO and MRYLH (where applicable) were 3.3 and 24 μM, respectively. Solutions of varying O2 concentrations were prepared by diluting air-saturated buffer with anaerobic buffer. The concentrations of O2 in the air-saturated buffer were measured with an Oxygraph+ oxygen electrode (Hansatech). To generate ^•NO-containing solutions, 0.5 mM DEA NONOate (≥98%, Cayman Chemical) was incubated in anaerobic buffer for 4 h to ensure complete ^•NO release. The ^•NO concentrations were quantified based on a hemoglobin assay, and further dilutions were made with anaerobic buffer immediately prior to mixing. Experimental data were analyzed by the ProK software package from Applied Photophysics. The second-order rate constants were obtained from linear fitting, with the resulting equations: y = 3.55x + 54.4 for the mixing of RufO with O2, y = 3.83x + 6.5 for the ES complex with O2, y = 4.12x −158.0 for RufO with ^•NO, and y = 2.35x – 58.9 for the ES complex with ^•NO.
Figure S9. Transient kinetics of ferrous RufO alone binding to O2 and •NO Spectral changes following the rapid mixing of 3.3 μM ferrous RufO with (A) 18 μM O 2 and […] superoxo intermediate and (B) a ferrous-nitrosyl complex. Insets show the time-dependent absorbance changes at 438 nm (the most pronounced shift), fitted using first-order exponential equations to determine rate constants (red trace).
(§1) (1 picture or pasted object on this page, not shown here)

[2] = molecular target: T1, TxtE (Streptomyces scabiei, UniProt C9ZDC6); assay: ITC of Trp titration to TxtE; assay type: binding; details: 2 mM Trp into 50 μM TxtE
T1 sequence (C9ZDC6 1-406): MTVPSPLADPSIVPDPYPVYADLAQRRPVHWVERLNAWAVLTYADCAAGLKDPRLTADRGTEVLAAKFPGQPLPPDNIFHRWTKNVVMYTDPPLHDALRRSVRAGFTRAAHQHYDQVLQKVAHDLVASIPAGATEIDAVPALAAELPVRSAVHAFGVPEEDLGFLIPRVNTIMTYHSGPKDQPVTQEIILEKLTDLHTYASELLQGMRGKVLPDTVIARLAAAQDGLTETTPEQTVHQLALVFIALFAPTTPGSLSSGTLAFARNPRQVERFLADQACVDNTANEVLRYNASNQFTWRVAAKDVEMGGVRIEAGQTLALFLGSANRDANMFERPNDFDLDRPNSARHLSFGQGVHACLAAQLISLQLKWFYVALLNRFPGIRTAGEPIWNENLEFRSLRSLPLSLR
Procedure: (§2) Figure S1. Spectroscopic and ITC analysis of substrate binding in TxtE
(§3) (A) UV-vis spectra of 2 μM TxtE in the absence (black trace) and presence (red trace) of 0.5 mM
(§4) Trp; (B) ITC experiment of Trp titration to TxtE.
(§5) power observed with successive injections of 2 mM Trp to 50 μM TxtE after baseline correction.
(§6) consistent with a single binding site (red line). (C) Resonance Raman spectra of 100 μM TxtE in
(§7) the absence (top) and presence (bottom) of 1 mM Trp.
as §1

[3] = molecular target: T1, TxtE; assay: UV-vis of TxtE with Trp; assay type: binding; details: 2 μM TxtE, 0.5 mM Trp
Procedure: as §2, §3
Trp; (B) ITC experiment of Trp titration to TxtE. […]
as §1

[4] = molecular target: T1, TxtE; assay: Resonance Raman of TxtE with Trp; assay type: binding; details: 100 μM TxtE, 1 mM Trp
Procedure: All rR measurements were carried out in 180° backscattering geometry, with scattered light focused by a cylindrical lens (Nikon). The beam passed through a 405 nm notch filter (Thorlabs) for ferric samples or a 442 nm notch filter (Iridian) for ferrous-CO samples, before entering an iHR550 spectrometer (Horiba Scientific). The spectrometer was configured with a 120-μm entrance slit and a 1200 grooves/mm grating (estimated spectral resolution of 10 cm^–1) for ferric samples, or a 350-μm slit and 2400 grooves/mm grating (estimated spectral resolution of 10 cm^–1) for ferrous-CO samples, with detection by a liquid nitrogen-cooled Symphony CCD detector (Horiba Scientific). The accuracy of absolute frequencies is about ±1 cm^–1 based on duplicated measurements. Measurements were conducted at room temperature in 5 mm NMR tubes constantly spinning to prevent local heating and protein degradation. The acquisition times for ferric and CO-bound samples were set to 40 min and 2 h, respectively. UV–vis spectra were recorded before and after the measurements to ensure no photodegradation occurred. rR spectra were calibrated with fenchone (for all samples) and acetone-d 6 (for ferrous-CO samples in high-frequency regions) and processed using GRAMS/AI software (ThermoFisher).
as §2, §3, §4, §5, §6, §7, §1

[5] = molecular target: T2, RufO (Streptomyces atratus, UniProt A0A224AU14); assay: Isothermal titration calorimetry, peptide into RufO; assay type: binding; details: ITC, 20 °C, 190 μM RufO, 50 mM Tris-HCl, 100 mM NaCl pH 7.5, one set of sites, control subtracted
T2 construct: made in house
T2 sequence (A0A224AU14 1-394): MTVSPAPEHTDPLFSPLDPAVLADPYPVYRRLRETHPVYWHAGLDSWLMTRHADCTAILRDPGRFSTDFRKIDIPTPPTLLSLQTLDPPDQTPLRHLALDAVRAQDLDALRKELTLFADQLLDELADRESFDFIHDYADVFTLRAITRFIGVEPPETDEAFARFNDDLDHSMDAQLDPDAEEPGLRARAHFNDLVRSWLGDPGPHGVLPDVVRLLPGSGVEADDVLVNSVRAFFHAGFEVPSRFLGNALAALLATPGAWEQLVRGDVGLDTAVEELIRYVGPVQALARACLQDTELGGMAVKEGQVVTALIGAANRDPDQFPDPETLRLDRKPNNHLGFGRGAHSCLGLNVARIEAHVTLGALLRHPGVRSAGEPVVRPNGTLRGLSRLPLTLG
Procedure: ITC experiments were conducted at 20 °C using a MicroCal PEAQ-ITC instrument (Malvern Panalytical). RufO was prepared in a buffer containing 50 mM Tris-HCl and 100 mM NaCl at pH 7.5. The reference cell was filled with water. Each experiment involved 190 μM RufO in the sample cell, titrated with either 2.5 mM MRYLH or 2.8 mM Nle-RYLH in the syringe. Control experiments replaced the protein in the cell with buffer. The titration protocol included an initial 0.4 μL injection (excluded from analysis), followed by 19 injections of 2 μL at 2.5 min intervals. The cell was continuously stirred at 750 rpm. Data analysis was conducted using MicroCal PEAQ-ITC Analysis Software, with heats of dilution determined from the plateau region of the thermograms and subtracted from each integrated peak. All titrations are baseline corrected. The final integrated enthalpic changes were obtained by subtracting the controls from the protein-peptide titrations and fitted to a “one set of sites” binding model.

[6] = molecular target: T2, RufO; assay: X-band cw EPR of RufO with peptide; assay type: binding; details: 100 μM RufO, 2 mM peptide, 10 K; double-integrated intensities
Procedure: 3 Spectroscopic characterization of the RufO heme center with and without peptide substrates. (A) X-band continuous wave EPR spectra of RufO (black), RufO with 2 mM MRYLH (red), and RufO with 2 mM Nle-RYLH (blue), measured at 10 K and 1 mW microwave power. The minor species marked by asterisks likely arise from conformational heterogeneity of the heme center or a freezing artifact. (B) rR spectra of RufO (top), RufO with 2 mM MRYLH (middle), and RufO with 2 mM Nle-RYLH (bottom). The spectra were collected using a 405 nm excitation laser at 5 mW. (C) rR spectra of CO adducts of ferrous RufO (top) and ferrous RufO with 2 mM Nle-RYLH (bottom). Spectra were collected using a 442 nm excitation line at 1 mW. (D) Backbonding correlations between v(Fe–C) and v(C–O) stretching frequencies for various CYPs in the absence (squares) and presence (circles) of ligands. […]
EPR samples were prepared by mixing 100 μM RufO in the same buffer with 5% glycerol and either 2 mM MRYLH or Nle-RYLH, followed by flash-freezing in 4 mm quartz EPR tubes. […] Each sample was measured at 9.35 GHz microwave frequency at 10 K using 1 mW microwave power. All spectra were recorded with four averaged scans using an ER4119HS resonator at a modulation frequency of 100 kHz and a modulation amplitude of 0.4 mT. The conversion rate of the low-spin species was determined by comparing the double-integrated intensities of the signals. […]

[7] = molecular target: T2, RufO; assay: RufO nitration activity assay (HPLC); assay type: biochemical; details: 20 μM RufO, 1 mM peptide, SpFdX/SpFdR, pH 8.0, 25 °C, 30 min; highest rate set as 100%; triplicate
Procedure: Each assay was performed in triplicate and contained 20 μM CYP enzyme, 80 μM ferredoxin, 40 μM reductase, 1 mM substrate, 1 mM NADH/NADPH, 1 mM DEA NONOate (≥98%, Cayman Chemical), and 132 μL O2-saturated buffer (50 mM Tris, 100 mM NaCl at pH 8.0, bubbled for 30 min) for a final reaction volume of 200 μL. Reactions with CPR in place of the ferredoxin/reductase system contained 40 μM CPR. Reactions were incubated at 25 °C with shaking at 300 rpm for 30 min, then filtered using a 10 kDa cutoff centrifugal filter (Millipore) and analyzed by HPLC. Filtrate was analyzed on an InertSustain C18 column (5 μm particle size, 4.6 mm × 100 mm, GL Sciences Inc.) on a Thermo Fisher Scientific Ultimate-3000SD HPLC rapid separation system equipped with a photodiode array detector. The flow rate was set at 1 mL/min. For RufO assays, solvent A was water and solvent B was 90% acetonitrile (ACN) in water with 0.1% trifluoroacetic acid (TFA). A gradient of 0–70% solvent B was applied over 15 min. For collection of peptide product peaks for mass spectrometry analysis, TFA in solvent B was replaced with formic acid (FA). The method for TxtE assays used water with 0.1% FA as solvent A and ACN with 0.1% FA as solvent B. A gradient of 0–20% solvent B was applied over 10 min, followed by a 5 min hold at 20% solvent B. All presented traces were monitored at an absorbance wavelength of 280 nm. […]

[8] = molecular target: T3, MRYLH pentapeptide (RufO substrate) (Streptomyces atratus); assay: ITC
T3 chain: MRYLH

Molecule: nitric oxide [•NO]
- kobs ([1]; MRYLH-bound ferrous RufO 3.3 μM, 70 μM •NO, 438 nm, single exponential): 107.4 s⁻¹
- association rate constant k1 ([1]; MRYLH-bound, 24 μM MRYLH): 2.35 μM^–1 s^–1
- association rate constant k1 ([1]; RufO alone): 4.12 μM^–1 s^–1
- •NO concentration below which nitrosyl complex not detectable ([1]; RufO alone): < 50 µM
- •NO concentration below which nitrosyl complex not detectable ([1]; peptide-bound RufO): < 70 µM

Molecule: N[C@@H](Cc1c[nH]c2ccccc12)C(=O)O [Trp, L-tryptophan]
- ΔS, in words [2]: negative ΔS
- Kd ([2]; single binding site): 16 µM
- ΔH ([2]; single binding site, exothermic): -14.6 kcal/mol
- Soret band position on substrate binding [3]: 390 nm
- low-spin ν10 (1640 cm^–1), in words [4]: disappearance
- ν4 on Trp binding ([4]; initially 1374 cm^–1): 1373 cm^–1
- ν3 on Trp binding ([4]; initially 1504 cm^–1, six- to five-coordinate high-spin conversion): 1488 cm^–1
- ν2 on Trp binding ([4]; initially 1588 cm^–1): 1570 cm^–1

Molecule: CCCC[C@H](N)C(=O)N[C@@H](CCCNC(=N)N)C(=O)N[C@@H](Cc1ccc(O)cc1)C(=O)N[C@@H](CC(C)C)C(=O)N[C@@H](Cc1c[nH]cn1)C(=O)O [Nle-RYLH] (H-[Nle]RYLH-OH)
- Kd [5]: 1.6 µM
- conversion of original low-spin species to new low-spin species [6]: 84%
- conversion rate (normalized) [7]: 100%

Molecule: MRYLH [MRYLH]
- Kd [5]: 0.78 ± 0.3 µM
- conversion of original low-spin species to new low-spin species [6]: 84%

B1: RufO (protein)
chain: MTVSPAPEHTDPLFSPLDPAVLADPYPVYRRLRETHPVYWHAGLDSWLMTRHADCTAILRDPGRFSTDFRKIDIPTPPTLLSLQTLDPPDQTPLRHLALDAVRAQDLDALRKELTLFADQLLDELADRESFDFIHDYADVFTLRAITRFIGVEPPETDEAFARFNDDLDHSMDAQLDPDAEEPGLRARAHFNDLVRSWLGDPGPHGVLPDVVRLLPGSGVEADDVLVNSVRAFFHAGFEVPSRFLGNALAALLATPGAWEQLVRGDVGLDTAVEELIRYVGPVQALARACLQDTELGGMAVKEGQVVTALIGAANRDPDQFPDPETLRLDRKPNNHLGFGRGAHSCLGLNVARIEAHVTLGALLRHPGVRSAGEPVVRPNGTLRGLSRLPLTLG
- Kd [8]: 0.78 µM
